{
  "source": "patent US20070065803A1",
  "about": "“Patterns for a skeletal system” (CENTRE NATIONAL DE LA RECHERCHE SCIENTIFIQUE, priority 2003, published 2007)",
  "system": "osteoclasts derived from RAW-GFP deposited onto a layer of MC3T3-type osteoblast cells",
  "experiment": "Crossing of the osteoblast layer by osteoclasts in the bone system model (confocal microscopy)",
  "type": "cell-based, murine",
  "settings": "PP2 at 10 μM; untreated osteoclasts cross the layer after 1 hour to 1 hour 30 min; FIG. 4",
  "description": "FIG. 4, images obtained by confocal microscopy 3D analysis, showing the organization of the two cell types according to the section along Z, in order to determine the effects of PP2 (FIG. 4B) in comparison with the control trial (FIG. 4A).\nCells of the murine osteoblast line MC 3T3 are placed in culture in α-MEM medium supplemented with 10% by volume of fetal calf serum, 10^−8M dexamethasone and 0.028 mM ascorbic acid. The cells are then detached and seeded at confluence onto the mineralized support.\nThe osteoclasts derived from human or murine primary cultures or from lines (for example, the RAW line or the human line GCT23) are obtained after 7 days of differentiation as described in Destaing et al. (Mol Biol Cell, Podosomes display actin turnover and dynamic self-organization in osteoclasts expressing actin-green fluorescent protein, 14(2):407-16, 2003). The osteoclast precursors are cultured in the presence of α-MEM medium supplemented with 10% by volume of fetal calf serum and of two recombinant cytokines: M-CSF and RANK-L ([…]). The cells are placed at 37° C. and 5% of CO2 and the medium is changed every two days for 7-8 days. The differentiated osteoclasts are detached with a solution of EDTA at 0.25 mM diluted in 1×PBS. The osteoclasts are seeded at a density of 10 cells/mm^2.\nAn inhibitor of the Src tyrosine kinase, PP2, was tested in the model according to the invention. […]",
  "data": [
    {"smiles": "CC(C)(C)n1nc(-c2ccc(Cl)cc2)c2c(N)ncnc21", "note": "[PP2]", "values": [
      {"measurement": "crossing (invasion) of the osteoblast cell layer by the osteoclasts", "value": "the osteoclasts no longer cross the osteoblast cell layer"}
    ]}
  ]
}
